Results on four compounds are retold here after PMC10508264, “Exploring the antioxidant, antimicrobial, cytotoxic and biothermodynamic properties of novel morpholine derivative bioactive Mn(II), Co(II) and Ni(II) complexes – combined experimental and theoretical measurements towards DNA/BSA/SARS-CoV-2 3CL^Pro” (RSC Medicinal Chemistry, 2023).

SMILES strings stand for the structures.

One assay has as its system CT-DNA. Briefly: DNA binding by viscometric (hydrodynamic) technique. How it is done:
The hydrodynamic properties were measured using an Ostwald viscometer with the help of a thermostat (25 ± 0.1 °C). The specific viscosity of DNA was also measured in the presence and absence of the test samples.[13,30]
Generally, when the major/minor groove binding, electrostatic, partial, and non-classical interaction modes are involved between chemical substances and DNA base pairs, the final DNA relative viscosity remains unchanged or undergoes a very negligible change due to reducing the contour length of DNA. When the intercalation binding modes are involved between a chemical substance and DNA base pairs via π–π stacking interactions and hydrophobic forces, an increase in relative viscosity is noted due to a rise in the contour length of DNA. Moreover, for the purpose of observing alterations in the CT-DNA helical structure, the viscosity findings for CT-DNA, various concentrations of chemical substances present, and EtBr were recorded. It was also noted that the absolute viscosity rose consistently along with the incremental concentration of each substance at the fixed DNA concentration. As a result of the strong binding mode of intercalation, the contour length of the double-helix DNA rises.[72] The obtained results are also compared with those of the classical intercalator (EB). The affinity interaction and their slope values were observed from the relative specific viscosity (η/η0)^1/3 plotted as a straight line contrasting [compound]/[DNA] and absolute specific viscosity of DNA in the presence or absence of chemical substances was evaluated using eqn (11) (Table 3). In the experiment, it was clearly noted that the slope values for all samples increased due to the rising binding affinity. The evaluated slopes were in the following sequence: (EB) 1.215 > (2) 0.860 > (3) 0.801 > (1) 0.662 > (HL) 0.490 (Fig. S21 ^† and Table 3). […] Due to the existence of 2,2′-bipyridine and the morpholine-fused aromatic planar systems, compounds can interact with DNA robustly via intercalation. The outcomes agreed with the observed outcomes of electronic absorption spectral characteristics.
11 [drawing 21] where η and η0 represent the specific viscosity of DNA in the presence of the complex and the specific viscosity of DNA alone, t0, tDNA and tcomplex represent the average flow time of the Tris–HCl buffer solution, the average flow time of the DNA alone solution, and the average flow time of DNA interacted with the samples, respectively. Error limit ± 2.5% (P < 0.025). […]
2.2.4. Assessment of DNA affinity by hydrodynamic technique
Hydrodynamic properties were performed using an Ostwald viscometer with the help of a thermostat (25 ± 0.1 °C). The experiment was performed of all samples, including ethidium bromide at various concentrations (20, 40, 60, 80, 100 µM) and each test compound was mixed with the deoxyribonucleic acid solution (100 µM) in the Ostwald viscometer. With a help of digital stopwatch, average flow time was gauged three times for each addition, and the specific viscosity of deoxyribonucleic acid was also measured in the presence and absence of test samples. […]
Also, the emission spectral titration for all compounds was also carried out at a fixed concentration (25 μM) of BSA with an incremental concentration of substances (0–25 µM)

Assay [1] has as its system Salmonella enterica serovar typhi. The assay is described as follows: Agar disc diffusion, strain B. It is filed as cell-based. The settings on record: for Diameter of clear zone inhibition: control 6 mm. A general note: In agar diffusion tests the substance spreads into inoculated agar from a disc or well.
The next assay deals with Shigella flexneri. The assay is described as follows: Agar disc diffusion, strain E. It counts as cell-based. More on the design: Inhibition%: concentration or dose not given beside the values. The settings on record: for Diameter of clear zone inhibition: control 6 mm.
Another assay relates to Candida albicans. The assay is described as follows: Agar disc diffusion, strain I. It is filed as cell-based. More on the design: Inhibition%: concentration or dose not given beside the values. As to conditions: for Diameter of clear zone inhibition: control 6 mm.

Turning to `[Mn+2].[O-]c1ccccc1N=Cc1ccc(N2CCOCC2)cc1.[O-]c1ccccc1N=Cc1ccc(N2CCOCC2)cc1.c1ccc(-c2ccccn2)nc1` [(1)], the “Slope of (η/η0)^1/3 vs [compound]/[DNA]” value with CT-DNA stood at 0.662. Also, the “Relative specific viscosity (η/η0)^1/3” value is recorded as 0.66 in the assay on CT-DNA ([complex]/[DNA] = 0.2); 0.78 with CT-DNA ([complex]/[DNA] = 0.4); 0.88 with CT-DNA ([complex]/[DNA] = 0.6); 1.02 in the assay with CT-DNA ([complex]/[DNA] = 0.8); 1.12 in the assay with CT-DNA ([complex]/[DNA] = 1.0). The results for the Inhibition% (in assay [1]; in the assay with Shigella flexneri; with Candida albicans) were 50%, 40% and 57%, respectively. For the same compound, the “Diameter of clear zone inhibition” value is 12 mm in assay [1], 10 mm in the assay on Shigella flexneri and 14 mm in the assay with Candida albicans.

Consider `[Co+2].[O-]c1ccccc1N=Cc1ccc(N2CCOCC2)cc1.[O-]c1ccccc1N=Cc1ccc(N2CCOCC2)cc1.c1ccc(-c2ccccn2)nc1` [(2)], for which, in the assay on CT-DNA, the “Slope of (η/η0)^1/3 vs [compound]/[DNA]” value turned out to be 0.860. The “Relative specific viscosity (η/η0)^1/3” value in the assay on CT-DNA ([complex]/[DNA] = 0.2) stood at 0.77; in the assay on CT-DNA ([complex]/[DNA] = 0.4), 0.88; with CT-DNA ([complex]/[DNA] = 0.6), 1.05; with CT-DNA ([complex]/[DNA] = 0.8) it was 1.18; in the assay on CT-DNA ([complex]/[DNA] = 1.0), 1.48. Besides, the Inhibition% in assay [1] came to 40%; in the assay with Shigella flexneri it was 33%; in the assay on Candida albicans it was 50%. Also, the “Diameter of clear zone inhibition” value in assay [1] is 10 mm; in the assay with Shigella flexneri it was 09 mm; with Candida albicans, 12 mm.

As to `[Ni+2].[O-]c1ccccc1N=Cc1ccc(N2CCOCC2)cc1.[O-]c1ccccc1N=Cc1ccc(N2CCOCC2)cc1.c1ccc(-c2ccccn2)nc1` [(3)], the “Slope of (η/η0)^1/3 vs [compound]/[DNA]” value with CT-DNA was determined as 0.801. For the same compound, the “Relative specific viscosity (η/η0)^1/3” value in the assay on CT-DNA ([complex]/[DNA] = 0.2) stood at 0.71; in the assay with CT-DNA ([complex]/[DNA] = 0.4), 0.86; in the assay on CT-DNA ([complex]/[DNA] = 0.6), 0.92; in the assay with CT-DNA ([complex]/[DNA] = 0.8), 1.11; in the assay with CT-DNA ([complex]/[DNA] = 1.0), 1.31. Moreover, the figures for the Inhibition% (in assay [1]; in the assay with Shigella flexneri; in the assay with Candida albicans) were 40%, 54% and 63%, respectively. In addition, the “Diameter of clear zone inhibition” value in assay [1] amounted to 10 mm; in the assay with Shigella flexneri, 13 mm; in the assay with Candida albicans, 16 mm.

As for `Oc1ccccc1N=Cc1ccc(N2CCOCC2)cc1` [(HL), 2-(4-morpholinobenzylideneamino)phenol], in the assay on CT-DNA, the “Slope of (η/η0)^1/3 vs [compound]/[DNA]” value worked out at 0.490. For the same compound, the “Relative specific viscosity (η/η0)^1/3” value with CT-DNA ([complex]/[DNA] = 0.2) turned out to be 0.61; in the assay on CT-DNA ([complex]/[DNA] = 0.4), 0.67; with CT-DNA ([complex]/[DNA] = 0.6), 0.75; in the assay with CT-DNA ([complex]/[DNA] = 0.8) it was 0.85; with CT-DNA ([complex]/[DNA] = 1.0) it was 1.01. Further, the Inhibition% in assay [1] is 33%; in the assay on Shigella flexneri, 57%; in the assay with Candida albicans it was 40%. The figures for the “Diameter of clear zone inhibition” value (in assay [1]; in the assay on Shigella flexneri; with Candida albicans) were 09 mm, 14 mm and 10 mm, respectively.
